The text below walks through data of patent US20230111914A1, “SYNTHETIC TRITERPENOIDS WITH NITROGEN-BASED SUBSTITUENTS AT C-17 AND METHODS OF USE THEREOF” (REATA PHARMACEUTICALS, INC., priority 2019, published 2023).

Assay [1] relates to IFNγ-induced NO production in RAW 264.7 cells. Description: Nitric oxide suppression assay (IFNγ-induced NO production, Griess nitrite readout). The note with it: for IC50: Mus musculus, RAW264.7, RAW 264.7 cells, 2 h pretreatment, 20 ng/mL interferon gamma 24 h, average of trials per footnote, read-out: NO IC50. It counts as cell-based, mouse.
In assay [2] the test system is AREc32 reporter cell line (luciferase reporter under eight copies of the rat GSTA2 ARE sequence). The experiment in a line: AREc32 luciferase reporter activation. In kind it is cell-based, human. The note with it: for EC (2-fold): Homo sapiens, Arec32, concentration that increases the luminescence signal 2-fold above vehicle, 19 h treatment, read-out: AREc32 EC2X (Mean ± SD). In general terms: In a reporter assay the amount or activity of a reporter protein is the signal.

SMILES strings stand for the structures. Where “and” joins values, the source holds several entries; their conditions need not be identical. Identical values can stand only once. Marks after values point to notes of the source that are not given here.

As to `CNC[C@]12CCC(C)(C)C[C@H]1[C@H]1C(=O)C=C3[C@@]4(C)C=C(C#N)C(=O)C(C)(C)[C@@H]4CC[C@@]3(C)[C@]1(C)CC2` [Compound T6], in assay [1], the “NO IC50 Rel. to RTA 402” value was 1.60 ± 0.23^e fold and the IC50 was 3.35 ± 1.62 nM. Further, in assay [2], the “AREc32 EC2X Relative to RTA 402 (Mean ± SD)” value is given as 1.2 ± 0.35^a fold and the EC (2-fold) was 0.0169 ± 3e-05 µM.

Take `CC(=O)N(C)C[C@]12CCC(C)(C)C[C@H]1[C@H]1C(=O)C=C3[C@@]4(C)C=C(C#N)C(=O)C(C)(C)[C@@H]4CC[C@@]3(C)[C@]1(C)CC2` [Compound T7]: in assay [1], the “NO IC50 Rel. to RTA 402” value was 0.49 ± 0.14^e fold and the IC50 worked out at 0.84 ± 0.37 nM. In assay [2], the “AREc32 EC2X Relative to RTA 402 (Mean ± SD)” value is reported as 0.5 ± 0.14^a fold and the EC (2-fold) was 0.0068 ± 3e-05 µM.

Take `CNC(=O)NC[C@]12CCC(C)(C)C[C@H]1[C@H]1C(=O)C=C3[C@@]4(C)C=C(C#N)C(=O)C(C)(C)[C@@H]4CC[C@@]3(C)[C@]1(C)CC2` [Compound T8]: in assay [1], the “NO IC50 Rel. to RTA 402” value was 0.21 fold and 0.21 ± 0.05^d fold; the “times more active (NO IC50) than 63172 relative to RTA 402” value is given as “roughly 37 times”; the IC50 stood at 0.46 nM. Further, in assay [2], the “AREc32 EC2X Relative to RTA 402 (Mean ± SD)” value is on record as 0.2 ± 0.06^a fold and the EC (2-fold) was found to be 0.0028 ± 4e-05 µM.

For `CNC(=O)N(C)C[C@]12CCC(C)(C)C[C@H]1[C@H]1C(=O)C=C3[C@@]4(C)C=C(C#N)C(=O)C(C)(C)[C@@H]4CC[C@@]3(C)[C@]1(C)CC2` [Compound T9], in assay [1], the “NO IC50 Rel. to RTA 402” value is 0.38 ± 0.15^e fold and the IC50 amounted to 0.7 ± 0.18 nM. Also, in assay [2], the “AREc32 EC2X Relative to RTA 402 (Mean ± SD)” value is given as 0.5 ± 0.20^a fold and the EC (2-fold) was 0.0072 ± 0.00077 µM.

In the case of `CC1(C)CC[C@]2(CNCCO)CC[C@]3(C)[C@H](C(=O)C=C4[C@@]5(C)C=C(C#N)C(=O)C(C)(C)[C@@H]5CC[C@]43C)[C@@H]2C1` [Compound T12], in assay [1], the “NO IC50 Rel. to RTA 402” value is recorded as 4.07 ± 1.08^e fold and the IC50 turned out to be 7.47 ± 0.85 nM. In assay [2], the “AREc32 EC2X Relative to RTA 402 (Mean ± SD)” value is 1.7^e fold and the EC (2-fold) stood at 0.0218 µM.

In the case of `CC1(C)CC[C@]2(CN3CCOC3=O)CC[C@]3(C)[C@H](C(=O)C=C4[C@@]5(C)C=C(C#N)C(=O)C(C)(C)[C@@H]5CC[C@]43C)[C@@H]2C1` [Compound T13], in assay [1], the “NO IC50 Rel. to RTA 402” value is listed as 0.65 ± 0.21^e fold and the half-inhibitory concentration (IC50) worked out at 1.74 ± 0.55 nM. Moreover, in assay [2], the “AREc32 EC2X Relative to RTA 402 (Mean ± SD)” value was 0.5^e fold and the EC (2-fold) was determined as 0.00512 µM.

Take `CC1(C)CC[C@]2(CN3CCNC3=O)CC[C@]3(C)[C@H](C(=O)C=C4[C@@]5(C)C=C(C#N)C(=O)C(C)(C)[C@@H]5CC[C@]43C)[C@@H]2C1` [Compound T14]: in assay [1], the “NO IC50 Rel. to RTA 402” value was 0.51 ± 0.09^e fold and the IC50 came to 0.89 ± 0.08 nM. In addition, in assay [2], the “AREc32 EC2X Relative to RTA 402 (Mean ± SD)” value is 0.4^e fold and the EC (2-fold) worked out at 0.00437 µM.

As to `CN1CCN(C[C@]23CCC(C)(C)C[C@H]2[C@H]2C(=O)C=C4[C@@]5(C)C=C(C#N)C(=O)C(C)(C)[C@@H]5CC[C@@]4(C)[C@]2(C)CC3)C1=O` [Compound T15], in assay [1], the “NO IC50 Rel. to RTA 402” value is 0.64 ± 0.26^d fold and the IC50 was determined as 1.18 ± 0.5 nM. For the same molecule, in assay [2], the “AREc32 EC2X Relative to RTA 402 (Mean ± SD)” value is listed as 0.5^e fold and the EC (2-fold) stood at 0.00607 µM.

In the case of `C=CC(=O)NC[C@]12CCC(C)(C)C[C@H]1[C@H]1C(=O)C=C3[C@@]4(C)C=C(C#N)C(=O)C(C)(C)[C@@H]4CC[C@@]3(C)[C@]1(C)CC2` [Compound T16], in assay [1], the “NO IC50 Rel. to RTA 402” value is 0.21 fold and 0.21 ± 0.05^d fold; the “times more active (NO IC50) than 63183 relative to RTA 402” value was “more than 6 times”; the 50% inhibitory concentration (IC50) is 0.37 nM. Further, in assay [2], the “AREc32 EC2X Relative to RTA 402 (Mean ± SD)” value was 0.2 ± 0.05^f fold and the EC (2-fold) came to 0.002 ± 0.00018 µM.

As to `Cc1cc(C)n(C[C@]23CCC(C)(C)C[C@H]2[C@H]2C(=O)C=C4[C@@]5(C)C=C(C#N)C(=O)C(C)(C)[C@@H]5CC[C@@]4(C)[C@]2(C)CC3)n1` [Compound T22], in assay [1], the “NO IC50 Rel. to RTA 402” value is reported as 5.29 ± 1.29^d fold and the IC50 came out at 9.18 ± 1.72 nM. Moreover, in assay [2], the “AREc32 EC2X Relative to RTA 402 (Mean ± SD)” value is 3.7^e fold and the EC (2-fold) stood at 0.0445 µM.

As to `CC1(C)CC[C@]2(CN3CC4(COC4)C3)CC[C@]3(C)[C@H](C(=O)C=C4[C@@]5(C)C=C(C#N)C(=O)C(C)(C)[C@@H]5CC[C@]43C)[C@@H]2C1` [Compound T23], in assay [1], the “NO IC50 Rel. to RTA 402” value is recorded as 2.01 ± 0.53^e fold and the IC50 turned out to be 4.16 ± 1.19 nM. In assay [2], the “AREc32 EC2X Relative to RTA 402 (Mean ± SD)” value is 1.9^e fold and the EC (2-fold) was found to be 0.0185 µM.

For the molecule `CC1(C)CC[C@]2(N3CCCC3=O)CC[C@]3(C)[C@H](C(=O)C=C4[C@@]5(C)C=C(C#N)C(=O)C(C)(C)[C@@H]5CC[C@]43C)[C@@H]2C1` [Compound T24], in assay [1], the “NO IC50 Rel. to RTA 402” value was 2.17 ± 0.72^e fold and the half-inhibitory concentration (IC50) was determined as 3.6 ± 0.08 nM. Also, in assay [2], the “AREc32 EC2X Relative to RTA 402 (Mean ± SD)” value is listed as 3.8^e fold and the EC (2-fold) is 0.0379 µM.

As for `CC1(C)CC[C@]2(CN3CCC3)CC[C@]3(C)[C@H](C(=O)C=C4[C@@]5(C)C=C(C#N)C(=O)C(C)(C)[C@@H]5CC[C@]43C)[C@@H]2C1` [Compound T25], in assay [1], the “NO IC50 Rel. to RTA 402” value was 1.21 ± 0.45^e fold and the IC50 was 2.5 ± 0.92 nM. For the same molecule, in assay [2], the “AREc32 EC2X Relative to RTA 402 (Mean ± SD)” value is recorded as 1.5^e fold and the EC (2-fold) was found to be 0.022 µM.

`CC1(C)CC[C@]2(CN3CC(F)C3)CC[C@]3(C)[C@H](C(=O)C=C4[C@@]5(C)C=C(C#N)C(=O)C(C)(C)[C@@H]5CC[C@]43C)[C@@H]2C1` [Compound T26]: in assay [1], the “NO IC50 Rel. to RTA 402” value is 2.73 ± 1.01^e fold and the IC50 was 5.61 ± 1.84 nM. Also, in assay [2], the “AREc32 EC2X Relative to RTA 402 (Mean ± SD)” value is on record as 1.6^e fold and the EC (2-fold) worked out at 0.0236 µM.

With `CC1(C)CC[C@]2(CN3CC(F)(F)C3)CC[C@]3(C)[C@H](C(=O)C=C4[C@@]5(C)C=C(C#N)C(=O)C(C)(C)[C@@H]5CC[C@]43C)[C@@H]2C1` [Compound T27], in assay [1], the “NO IC50 Rel. to RTA 402” value is listed as 8.68 ± 2.12^e fold and the half-maximal inhibitory concentration (IC50) worked out at 17.8 ± 1.79 nM. Further, in assay [2], the “AREc32 EC2X Relative to RTA 402 (Mean ± SD)” value is given as 1.8^e fold and the EC (2-fold) came out at 0.0266 µM.

For `CC1(C)CC[C@]2(CN3CC(O)C3)CC[C@]3(C)[C@H](C(=O)C=C4[C@@]5(C)C=C(C#N)C(=O)C(C)(C)[C@@H]5CC[C@]43C)[C@@H]2C1` [Compound T28], in assay [1], the “NO IC50 Rel. to RTA 402” value was 1.09 ± 0.16^e fold and the IC50 came to 2.83 ± 0.92 nM. In assay [2], the “AREc32 EC2X Relative to RTA 402 (Mean ± SD)” value is 0.9 ± 0.12^a fold and the EC (2-fold) is 0.0139 ± 0.00157 µM.

On to `CC1(C)CC[C@]2(CN3CC(=O)C3)CC[C@]3(C)[C@H](C(=O)C=C4[C@@]5(C)C=C(C#N)C(=O)C(C)(C)[C@@H]5CC[C@]43C)[C@@H]2C1` [Compound T29], for which, in assay [1], the “NO IC50 Rel. to RTA 402” value is 1.49 ± 0.30^d fold and the IC50 came to 6.09 ± 1.46 nM. Moreover, in assay [2], the “AREc32 EC2X Relative to RTA 402 (Mean ± SD)” value is given as 1.2^e fold and the EC (2-fold) came out at 0.0133 µM.

Turning to `CN1CCN([C@]23CCC(C)(C)C[C@H]2[C@H]2C(=O)C=C4[C@@]5(C)C=C(C#N)C(=O)C(C)(C)[C@@H]5CC[C@@]4(C)[C@]2(C)CC3)C1=O` [Compound T31], in assay [1], the “NO IC50 Rel. to RTA 402” value is 3.13 ± 0.36^d fold and the IC50 worked out at 12.6 ± 1.65 nM. Also, in assay [2], the “AREc32 EC2X Relative to RTA 402 (Mean ± SD)” value is reported as 4.3^e fold and the EC (2-fold) amounted to 0.0455 µM.

Usually IC50 stands for the concentration that gives 50% inhibition.
